Target: T1, mGluR5 (Rattus norvegicus, UniProt P31424)
T1 construct: tissue Charles River Laboratories; host or cells: rat brain cortex membranes (Sprague-Dawley)
Experiment: mGluR5 binding assay ([3H]-MPEP radioligand competition)
Conditions: competition with 3 nM [3H]-MPEP, rat brain cortical membranes, 1 h at 4 °C; mean of at least three independent experiments in duplicate
Excerpt: Activity of compounds of the invention was examined following a radioligand binding technique using whole rat brain and tritiated 2-methyl-6-(phenylethynyl)-pyridine ([^3H]-MPEP) as a ligand following similar methods than those described in F. Gasparini et al. Bioorg. Med. Chem. Lett. 2002, 12, 407-409 and in J. F. Anderson et al. J. Pharmacol. Exp. Ther. 2002, 303, 3, 1044-1051.
Cortices were dissected out from brains of 200-300 g Sprague-Dawley rats (Charles River Laboratories, L'Arbresle, France). Tissues were homogenized in 10 volumes (vol/wt) of ice-cold 50 mM Hepes-NaOH (pH 7.4) using a Polytron disrupter (Kinematica AG, Luzern, Switzerland) and centrifuged for 30 min at 40,000 g. (4° C.). The supernatant was discarded and the pellet washed twice by resuspension in 10 volumes 50 mM HEPES-NaOH. Membranes were then collected by centrifugation and washed before final resuspension in 10 volumes of 20 mM HEPES-NaOH, pH 7.4. Protein concentration was determined by the Bradford method (Bio-Rad protein assay, Reinach, Switzerland) with bovine serum albumin as standard.
[^3H]-MPEP Binding Experiments:
Membranes were thawed and resuspended in binding buffer containing 20 mM HEPES-NaOH, 3 mM MgCl2, 3 mM CaCl2, 100 mM NaCl, pH 7.4. Competition studies were carried out by incubating for 1 h at 4° C.: 3 nM [^3H]-MPEP (39 Ci/mmol, Tocris, Cookson Ltd, Bristol, U.K.), 50 μg membrane and a concentration range of 0.003 nM-30 μM of compounds, for a total reaction volume of 300 μl. The non-specific binding was defined using 30 μM MPEP. Reaction was terminated by rapid filtration over glass-fiber filter plates (Unifilter 96-well GF/B filter plates, Perkin-Elmer, Schwerzenbach, Switzerland) using 4×400 μl ice cold buffer using cell harvester (Filtermate, Perkin-Elmer, Downers Grove, USA). Radioactivity was determined by liquid scintillation spectrometry using a 96-well plate reader (TopCount, Perkin-Elmer, Downers Grove, USA).
The inhibition curves were generated using the Prism GraphPad program (Graph Pad Software Inc, San Diego, USA). IC50 determinations were made from data obtained from 8 point-concentration response curves using a non linear regression analysis.
The table below represents the mean of IC50 obtained from at least three independent experiments of selected molecules performed in duplicate.

T1 sequence (P31424 21-1203): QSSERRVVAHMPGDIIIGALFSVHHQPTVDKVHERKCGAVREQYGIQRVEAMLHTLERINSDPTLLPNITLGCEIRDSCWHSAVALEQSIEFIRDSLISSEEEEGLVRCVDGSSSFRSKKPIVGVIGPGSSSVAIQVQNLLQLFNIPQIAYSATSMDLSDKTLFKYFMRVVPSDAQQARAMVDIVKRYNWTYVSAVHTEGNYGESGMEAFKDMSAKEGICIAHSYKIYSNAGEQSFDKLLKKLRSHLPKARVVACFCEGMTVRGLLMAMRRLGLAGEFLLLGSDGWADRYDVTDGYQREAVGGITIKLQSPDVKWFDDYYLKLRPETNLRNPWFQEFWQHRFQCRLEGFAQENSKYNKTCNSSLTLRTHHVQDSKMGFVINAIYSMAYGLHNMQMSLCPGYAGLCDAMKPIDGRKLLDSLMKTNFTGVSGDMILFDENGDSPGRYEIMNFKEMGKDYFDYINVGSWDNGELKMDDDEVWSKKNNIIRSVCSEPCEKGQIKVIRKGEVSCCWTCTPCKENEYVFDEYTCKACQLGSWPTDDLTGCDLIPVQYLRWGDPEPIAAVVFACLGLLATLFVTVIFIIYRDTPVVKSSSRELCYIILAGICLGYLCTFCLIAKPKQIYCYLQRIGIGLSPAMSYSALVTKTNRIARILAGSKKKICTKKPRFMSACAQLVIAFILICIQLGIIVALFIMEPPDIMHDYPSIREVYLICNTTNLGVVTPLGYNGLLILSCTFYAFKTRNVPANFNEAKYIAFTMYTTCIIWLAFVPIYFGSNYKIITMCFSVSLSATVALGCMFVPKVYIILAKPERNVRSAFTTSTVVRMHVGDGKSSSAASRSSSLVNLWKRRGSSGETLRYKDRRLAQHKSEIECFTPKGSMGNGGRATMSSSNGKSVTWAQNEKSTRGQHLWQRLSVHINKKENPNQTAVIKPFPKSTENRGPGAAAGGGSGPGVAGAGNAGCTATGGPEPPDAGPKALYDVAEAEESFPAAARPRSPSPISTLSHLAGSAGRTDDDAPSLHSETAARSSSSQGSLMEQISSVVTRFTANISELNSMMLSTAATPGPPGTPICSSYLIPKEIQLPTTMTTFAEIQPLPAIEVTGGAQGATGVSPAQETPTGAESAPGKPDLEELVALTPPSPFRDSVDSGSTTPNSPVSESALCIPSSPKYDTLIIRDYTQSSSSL

SMILES	IC50 [nM]
C(#Cc1ccccn1)CCc1nc2c(-c3ccccc3)cccc2o1 [Example 87, 4-Phenyl-2-(4-(pyridin-2-yl)but-3-ynyl)benzo[d]oxazole]	< 10000
CC(C)c1cccc2nc(CCC#Cc3ccccn3)oc12 [Example 95, 7-Isopropyl-2-(4-(pyridin-2-yl)but-3-ynyl)benzo[d]oxazole]	< 10000
Fc1ccc(C(F)(F)F)c2nc(CCC#Cc3ccccn3)oc12 [Example 97, 7-Fluoro-4-(trifluoromethyl)-2-(4-(pyridin-2-yl)but-3-ynyl)benzo[d]oxazole]	< 10000
C(#Cc1ccncn1)CCc1nc2ccccc2o1 [Example 98, 2-(4-(Pyrimidin-4-yl)but-3-ynyl)benzo[d]oxazole]	< 10000
CN(C(=O)CCC#Cc1ccccn1)c1cccc(Cl)c1 [Example 99, N-(3-Chlorophenyl)-N-methyl-5-(pyridin-2-yl)pent-4-ynamide]	< 10000
Cc1ccc(Cl)c2sc(CCC#Cc3ccccn3)nc12 [Example 100, 7-Chloro-4-methyl-2-(4-(pyridin-2-yl)but-3-ynyl)benzo[d]thiazole]	< 10000
Cc1ccc(C)c2sc(CCC#Cc3ccccn3)nc12 [Example 102, 4,7-Dimethyl-2-(4-(pyridin-2-yl)but-3-ynyl)benzo[d]thiazole]	< 10000
C(#Cc1ccccn1)CCn1nc2ccccc2n1 [Example 109, 2-(4-(Pyridin-2-yl)but-3-ynyl)-2H-benzo[d][1,2,3]triazole]	< 500
C(#Cc1ccccn1)CCc1cc(-c2ccccc2)no1 [Example 111, 2-(4-(3-Phenylisoxazol-5-yl)but-1-ynyl)pyridine]	< 10000
Fc1ccc(C#CCCc2nc3ccccc3s2)nc1 [Example 113, 2-(4-(5-Fluoropyridin-2-yl)but-3-ynyl)benzo[d]thiazole]	< 10000

Continued, values first:

IC50 [nM]	SMILES
< 50	Clc1cccc2oc(CCC#Cc3ccccn3)nc12 [Example 88, 4-Chloro-2-(4-(pyridin-2-yl)but-3-ynyl)benzo[d]oxazole]
< 50	Cc1cccc2nc(CCC#Cc3ccccn3)oc12 [Example 91, 7-Methyl-2-(4-(pyridin-2-yl)but-3-ynyl)benzo[d]oxazole]
< 50	COc1cccc2nc(CCC#Cc3ccccn3)oc12 [Example 94, 7-Methoxy-2-(4-(pyridin-2-yl)but-3-ynyl)benzo[d]oxazole]
< 50	Fc1ccc(F)c2oc(CCC#Cc3ccccn3)nc12 [Example 96, 4,7-Difluoro-2-(4-(pyridin-2-yl)but-3-ynyl)benzo[d]oxazole]
< 50	Fc1cccc2sc(CCC#Cc3ccccn3)nc12 [Example 101, 4-Fluoro-2-(4-(pyridin-2-yl)but-3-ynyl)benzo[d]thiazole]
< 50	Cc1cccc2sc(CCC#Cc3ccccn3)nc12 [Example 103, 4-Methyl-2-(4-(pyridin-2-yl)but-3-ynyl)benzo[d]thiazole]
< 50	Fc1ccc2sc(CCC#Cc3ccccn3)nc2c1 [Example 104, 5-Fluoro-2-(4-(pyridin-2-yl)but-3-ynyl)benzo[d]thiazole]
< 50	Clc1cccc2sc(CCC#Cc3ccccn3)nc12 [Example 105, 4-Chloro-2-(4-(pyridin-2-yl)but-3-ynyl)benzo[d]thiazole]
< 500	Cn1c(CCC#Cc2ccccn2)nc2ccccc21 [Example 107, 1-Methyl-2-(4-(pyridin-2-yl)but-3-ynyl)-1H-benzo[d]imidazole]
< 500	C(#Cc1ccccn1)CCn1cc2ccccc2n1 [Example 108, 2-(4-(Pyridin-2-yl)but-3-ynyl)-2H-indazole]
< 50	Cc1nc(C#CCCc2nc3ccccc3s2)cs1 [Example 112, 2-(4-(2-Methylthiazol-4-yl)but-3-ynyl)benzo[d]thiazole]
< 50	Cc1cccc(C#CCCc2nc3ccccc3s2)n1 [Example 114, 2-(4-(6-Methylpyridin-2-yl)but-3-ynyl)benzo[d]thiazole]
< 50	Fc1ccc(Cl)c2sc(CCC#Cc3ccccn3)nc12 [Example 116, 7-Chloro-4-fluoro-2-(4-(pyridin-2-yl)but-3-ynyl)benzo[d]thiazole]

— US8883826B2, “Alkynyl derivatives as modulators of metabotropic glutamate receptors” (Addex Pharma SA, priority 2004, dated 2014)
